Twelve compounds from ChEMBL document CHEMBL4354788, “Synthetic small-molecule RNA ligands: future prospects as therapeutic agents” (Medchemcomm, 2019) can be followed below.

Test [1] in a line: Binding affinity to HIV1 TAR RNA. On the set-up: species or system Human immunodeficiency virus 1.
Test [2] has as its system Human immunodeficiency virus 1. Kind of test: Antiviral activity against HIV1 NL4-3 infected in human MAGIC-5B cells assessed as inhibition of virus proliferation. The settings on record: Human immunodeficiency virus 1, NL4-3. It counts as functional, organism-based.
In test [3] the test system is Human immunodeficiency virus 1. Kind of test: Binding affinity to HIV1 TAR RNA assessed as increase in melting temperature.
Test [4] relates to Human immunodeficiency virus 1. Kind of test: Antiviral activity against HIV1 infected in human MT2 cells assessed as inhibition of virus proliferation at 9 uM relative to control. It counts as functional. The settings on record: Human immunodeficiency virus 1, MT2.
For test [5], the system named is Human immunodeficiency virus 1. Kind of test: Antiviral activity against HIV1 infected in human CEM-SS cells assessed as inhibition of virus proliferation. It counts as functional, organism-based. The settings on record: Human immunodeficiency virus 1, CEM-SS.
Test [6] has as its system Human immunodeficiency virus 1. Put plainly: Binding affinity to HIV1 TAR RNA in HIV1 NL4-3 infected human TZM-bl cells assessed as inhibition of Tat-mediated activation relative to control. The settings on record: concentration not given here.
The test system of test [7] is Human immunodeficiency virus 1. Kind of test: Antiviral activity against HIV1 NL4-3 infected human TZM-bl cells assessed as reduction in viral replication. The format is functional, organism-based. The settings on record: Human immunodeficiency virus 1, NL4-3, TZM-bl.
Test [8] can be described thus: Binding affinity to HCV promoter RNA by NMR-based fragment screening assay. On the set-up: species or system Hepacivirus hominis.
In test [9] the test system is Human immunodeficiency virus 1. Put plainly: Antiviral activity against HIV1 assessed as reduction in viral replication by cell based assay. The format is functional, organism-based.
Test [10] can be described thus: Binding affinity to r(CUG) repeat RNA (unknown origin).
The nature of test [11]: Binding affinity to r(CUG) repeat RNA (unknown origin) assessed as reduction in r(CUG)-MBNL1 interaction.
In test [12] the target is Rev responsive element (RRE) RNA. Put plainly: Binding affinity to HIV1 RRE RNA assessed as reduction in binding of tritiated RRE RNA to biotinylated Rev protein by high-throughput scintillation proximity assay. The format is nucleic-acid assay, Human immunodeficiency virus 1. In general terms: SPA uses beads or plates that emit light when radiolabelled molecules are held near them.

Test [13] is described as follows: Inhibition of miR-96 hairpin RNA precursor (unknown origin).
A short description of test [14]: Binding affinity to Stem loop 3 RNA in HIV1 infected in HEK293T cells assessed as reduction in SL3-Gag interaction by measuring inhibition of RNA incorporation into virions. The format is cell-based. The settings on record: Human immunodeficiency virus 1, HEK-293T.
A short description of test [15]: Binding affinity to r(CGG)12 repeat RNA (unknown origin) assessed as reduction in r(CGG)12-[…] interaction.

SMILES strings stand for the structures. A value given as a limit tells only on which side of the number the result lay.

Regarding `CC(=O)Nc1nc(-c2cccc(NC(=O)[C@H](N)Cc3c[nH]cn3)c2)cs1`, the affinity in test [1], expressed as Kd, was 17.5 µM. In addition, the IC50 (commonly the concentration that inhibits the measured activity by half) in test [2] worked out at 0.41 µM.

For `NC[C@H]1O[C@@H](O[C@H]2[C@H](O[C@@H]3O[C@H](Cn4cc(-c5ccc(-c6cn(C[C@H]7O[C@@H](O[C@@H]8[C@@H](O)[C@H](N)C[C@H](N)[C@H]8O[C@@H]8O[C@H](CN)[C@@H](O)[C@H](O)[C@H]8N)[C@H](O)[C@@H]7O[C@@H]7O[C@H](CN)[C@@H](O)[C@H](O)[C@H]7N)nn6)cc5)nn4)[C@@H](O[C@@H]4O[C@H](CN)[C@@H](O)[C@H](O)[C@H]4N)[C@H]3O)[C@@H](O)[C@H](N)C[C@@H]2N)[C@H](N)[C@@H](O)[C@@H]1O`, the ΔTm (commonly the change in melting temperature against a reference sample) in test [3] is less than 10 °C. The inhibition (as a rule, the drop in the measured response relative to a control, in per cent) at 9 µM in [4] is 70%.

As for `Cc1ccc2c(N)c(C(=O)Nc3cccc(C(F)(F)F)c3)sc2n1`, binding in test [1] was put at a Kd of 2.4 µM. In test [5], the EC50 (in general, the midpoint of the concentration-response curve) was determined as 28 µM.

Take `CCN[C@@H]1C[C@H](N)[C@@H](O[C@H]2OC(CN)=CC[C@H]2N)[C@H](O)[C@H]1O[C@H]1OC[C@](C)(O)[C@H](NC)[C@H]1O` [NETILMICIN]: binding in test [1] was characterised by a dissociation constant (Kd) of 1.35 µM. Also, the inhibition in test [6] turned out to be 81%. Also, in test [7], the IC50 stood at 23.1 µM.

Consider `COc1cc2nc(N3CCNCC3)nc(N)c2cc1OC` [AMINODIMETHOXYQUINAZOLINYLPIPERAZINE], for which, in [8], the Kd – broadly, the equilibrium constant for the complex coming apart – came to 50.5 µM.

Consider `CN(C)CCOc1cc2c(c3ccccc13)-c1ccccc1C2=O`, for which the 50% effective concentration (EC50) in test [9] (read-out: EC50) was 0.83 µM.

For the compound `COc1ccc2nc3cc(Cl)ccc3c(NCCCCNc3nc(N)nc(N)n3)c2c1`, the affinity in [10], expressed as Kd, was 0.0052 µM. Further, the IC50 in test [11] worked out at 15 µM.

For `CCN(CC)CCOc1ccc(/C(=C(/Cl)c2ccccc2)c2ccccc2)cc1` [ENCLOMIPHENE], in test [12], the half-inhibitory concentration (IC50) is 3.7 µM. In test [9], the concentration for a half-maximal effect (EC50) was found to be 4.3 µM.

In turn, `CCCN(CC(=O)N(CCC)CC(=O)N(CC(N)=O)Cc1cn(CCCNC(=O)CCCOc2c(C(C)(C)C)cc(-c3nc4cc(N5CCN(C)CC5)ccc4[nH]3)cc2C(C)(C)C)nn1)C(=O)CCCOc1cccc(-c2nc3ccc(-c4nc5ccc(N6CCN(C)CC6)cc5[nH]4)cc3[nH]2)c1` returned an IC50 in [13] of 0.05 µM.

The compound `Nc1cccc(-c2nc3cc(-c4ccc5[nH]c(-c6cccc(N)c6)nc5c4)ccc3[nH]2)c1` registered a Kd in [10] of 0.07 µM.

For `CN1CC/C(=N\c2ccc(C(=O)Nc3ccc(N=c4ccn(C)cc4)cc3)cc2)c2cc([N+](=O)[O-])ccc21`, the IC50 in test [14] came to 4.5 µM.

For the compound `Cc1c2cc[n+](CCN3CCCCC3)cc2c(C)c2c1[nH]c1ccc(O)cc12`, the IC50 in test [15] is 12 µM.
